The source of these data is paper PMC10166914, “GTN057, a komaroviquinone derivative, induced myeloma cells' death in vivo and inhibited c‐MET tyrosine kinase” (Cancer Medicine, 2023).

Data set [1] has as its system EGF stimulated ERK1/2, STAT3, AKT1 phosphorylation. The experiment in a line: Western blot, EGF-stimulated signaling in A549 cells. It is filed as cell-based, human. The following applies: EGF stimulation. Here is the method:
MM cells (4 × 10^5 cells/mL) were incubated with 0–20 μM GTN057 for 12 h. The cells were then co‐cultured with 0–50 ng/mL of hepatocyte growth factor (HGF) (PeproTech, London) or 0–20 ng/mL of fibroblast growth factor (FGF)‐2 (PeproTech) with 1 unit/mL of heparin in RPMI containing 4% dialyzed FCS (Gibco) for the KMS11 and KMS34 cells and 10% dialyzed FCS for the KMS21 cells for 15 min at RT (room temperature). A549 cells were co‐cultured with 0–50 ng/mL of epidermal growth factor (EGF) (PeproTech) in Eagle's MEM containing 4% dialyzed FCS for 15 min at RT. […]
The protein concentrations were measured using a BCA Protein Assay Kit (Thermo Fisher Scientific). […]
Antibodies against phospho‐STAT3 (Tyr705), phospho‐Akt (Ser473), p44/42 MAPK (Erk 1/2), phosphor‐p44/42 MAPK (Thr202/Tyr 204), and phospho‐c‐Met (Tyr1234/1235) (all from Cell Signaling Technology, Danvers, MA) or STAT3, Akt, c‐Met, and β‐actin (all from Santa Cruz Biotechnology, Santa Cruz, CA) or phospho‐c‐Met (Tyr1230/1234/1235) (Biosource, Camarillo, CA for KMS34 cells in Figure 3A) were each used at 1:1000 dilution. […] The Western blotting signals were detected by enhanced ECL chemiluminescence (Amersham). The signal intensity of each band was quantified densitometrically with ImageJ software (ver. 1.48, U.S. National Institutes of Health).
A general note: Immunoblotting shows a protein as a band on a membrane.

In data set [2] the test system is CD138-positive cells obtained from MM patients' bone marrow. The experiment in a line: Growth inhibition of patient cells, MTT assay. It is filed as cell-based. The following applies: Homo sapiens, 48 h. The source says:
Mononuclear cells were obtained from the bone marrow aspirates of MM patients treated at Tokyo Saiseikai Central Hospital, by centrifugation with Lymphoprep™ (Axis‐Shield). The mononuclear cells were then labeled with CD138 MicroBeads from Miltenyi Biotec (Bergisch Gladbach). The labeled CD138‐positive cells were magnetically purified using MACS Columns (Miltenyi Biotec).
For the 3‐[…] (MTT) assay (Roche Diagnostics), 6 × 10^4 cells/mL of CD138‐positive bone marrow cells were cultured in 96‐well plates in triplicate with various concentrations of GTN057 for 48 h. The cell viability was examined by MTT dye absorbance in accord with the manufacturer's manual. We obtained the IC50 values by drawing approximate straight lines in semilogarithmic growth curves, using Microsoft Excel.
(In general: Tetrazolium assays rely on reduction of a dye to a coloured formazan, in cell work by metabolically active cells.)

Data set [3] has as its system MUM24 cells. The experiment in a line: ROS production and growth recovery by anti-oxidants. It is filed as cell-based, human. On the procedure: First, 2 × 10^5 cells/mL of MUM24 cells were incubated with or without 6 mM NAC (N‐acetyl cysteine; Sigma‐Aldrich) or 3 mM GSH (glutathione; Sigma‐Aldrich) for 2 h. Next, 20 μM GTN057 was added and cultured for an additional 72 h. Cells were incubated with 1 μM CM‐H2DCFDA (i.e., 5‐(and‐6)‐chloromethyl‐2′, 7′‐dichlorodihydrofluorescein diacetate) for 30 min. For the evaluation of ROS production, the cells were stained with CM‐H2DCFDA and analyzed using a FACS (fluorescence‐activated cell sorting) system (LSR II, BD Biosciences). For the assessment of growth recovery by NAC or GSH, 2 × 10^5 cells/mL of MUM24 cells were also treated with 20 μM GTN057 in the presence or absence of 6 mM NAC or 3 mM GSH as described above. We conducted a trypan blue exclusion test to determine the numbers of viable cells.

Data set [4] concerns KMS11 cells. The experiment in a line: In vivo tumor growth assay, KMS11 xenograft. More on the design: species or system ICR/SCID mice. As to conditions: 100 mg/kg i.p., after 2 weeks of treatment, KMS11-xenografted SCID mice. Here is the method: For the in vivo tumor growth assay, we injected 3 × 10^7 cells of KMS11 cells subcutaneously into the flank of male 5‐week‐old ICR/SCID mice. When the tumors reached 100 mm^3, we injected (i.p.) 20 or 100 mg/kg of GTN057 solubilized in 1% Tween® 80 + 10% DMSO in saline twice every 3 days for 2 weeks. We measured the tumor volumes every day for 2 weeks as the length × width^2 × 0.52.[21]

In data set [5] the test system is bone marrow cells from mice. More on the design: method as in PMID 28882484. The following applies: cited from earlier work.

What is called IC50 is the midpoint of a concentration-inhibition curve. Read a high IC50 as lower potency. In the case of `COc1c(OC(C)=O)c2c(c(O)c1C(C)C)C(=O)CC1C(C)(C)CCC[C@]1(O)C2` (some centres unmarked) [GTN057], the “ERK1/2, STAT3, AKT1 phosphorylation levels” value in data set [1] is recorded as “not altered”. The 50% inhibitory concentration (IC50) turned out to be 12.1 µM in data set [2] (Patient 1 CD138+ cells), 16.3 µM in data set [2] (Patient 2 CD138+ cells), 26.3 µM in data set [2] (Patient 3 CD138+ cells) and 18.7 µM in data set [2] (Patient 4 CD138+ cells). Also, in data set [3] (20 μM GTN057 with 6 mM NAC or 3 mM GSH), the “Abrogation of growth inhibition and apoptosis by anti-oxidants” value is given as “not significantly abrogated”. For the same molecule, the ROS production result in data set [3] (20 μM, MM cells, CM-H2DCFDA, FACS) is listed as “produced ROS”. Further, in data set [4], the Average tumor volume came to 0.71 ± 0.17 cm^3. In data set [4], this molecule showed an Average tumor weight of 0.98 ± 0.16 g. Besides, the “Colony formation of bone marrow cells” value in data set [5] (bone marrow cells from mice) is “did not inhibit the colony formation”. Moreover, in data set [5] (colony assay), the “Hematological toxicity in vitro” value is reported as “negligible hematological toxicity”.
